# According to patent US12138242B1, “Controlling neuropathic pain” (Frimline Private Limited, priority 2017, dated 2024):
# Tested on: Oxaliplatin induced peripheral neuropathy in rat
# Test: Cold hyperalgesia method (tail immersion test), oxaliplatin induced peripheral neuropathy
# Format: in vivo, Wistar
# Conditions: for % (average tail immersion time relative to 20.00 of normal control): Table 2, doses of Table 1 p.o.; for % (average tail immersion time relative to 20.00 of normal control) / Duration of tail immersion, AVG / Duration of tail immersion, Animal Mark 1 / Duration of tail immersion, Animal Mark 2 / Duration of tail immersion, Animal Mark 3 / Duration of tail immersion, Animal Mark 4 / Duration of tail immersion, Animal Mark 5 / Duration of tail immersion, Animal Mark 6: rat; for % (average tail immersion time relative to 20.00 of normal control) / Duration of tail immersion, AVG: n=6; for % (Day 4 relative to 20.00) / Tail immersion time, Day 0 / Tail immersion time, Day 4: Table 3, groups named by human effective dose/day; for Duration of tail immersion, AVG / Duration of tail immersion, Animal Mark 1 / Duration of tail immersion, Animal Mark 2 / Duration of tail immersion, Animal Mark 3 / Duration of tail immersion, Animal Mark 4 / Duration of tail immersion, Animal Mark 5 / Duration of tail immersion, Animal Mark 6: p.o. Day 1-3 at doses of Table 1, 24 hrs after oxaliplatin 12 mg/kg i.p., cut-off 20 seconds
# Method: Example 21—Animal Study—Screening effect of synergistic combination or composition/formulation comprising PEA and other natural ingredients against Oxaliplatin induced peripheral neuropathy in rat.
# • Species: Rat (Rattus norvegicus); • Strain: Wistar; Sex: Male/Female • No. of animals: 54 Animals (n=6 per group) • Animal House conditions: • Lighting: 12/12 hour light-dark cycle • Temperature: 25±2° C. • Relative Humidity: 30 to 70% • Temperature and relative humidity were recorded Thrice daily.
# EXPERIMENTAL PROCEDURE: In study fifty-four (54) rats, were divided into total nine (09) groups. Group 1 served as the normal control, Group 2 served as the disease control, Group 3, Group 4 and Group 5 served as component (A, B and C), Group 6, Group 7 and Group 8 served as formulation of test drug, while Group 9 served as the Reference standard group. For these studies, the following combinations were used.
# Group-1 received vehicle (0.25% w/v Sodium CMC) orally (p.o.) for three consecutive days (Day 1, 2 & 3). Group-2 to Group-8 received test drugs, while Group 9 received Pregabalin orally (p.o.) on Day-1, Day-2 and Day-3. All treatment groups (Group 2 to 9) were administered with oxaliplatin (12 mg/kg, i.p.) on Day-3 prior to 2 hrs of test drug administration. After 24 hrs of oxaliplatin administration, treated groups as well as the normal control group were assessed using the Cold hyperalgesia method.
# Cold Hyperalgesia method (Tail Immersion Test): In the Tail-immersion test, water was maintained at low (0 to 4-C) temperature. The tail of the rat was immersed in cold water and the duration (time in seconds) of tail immersion was recorded, until the tail was withdrawn from water. The cut-off time of 20 seconds was used. The decrease in tail contact time with cold water was indicative pain whereas prolonged contact time was noted as anti-allodynic effect.
SMILES,% (average tail immersion time relative to 20.00 of normal control),% (Day 4 relative to 20.00),"Tail immersion time, Day 0","Tail immersion time, Day 4","Duration of tail immersion, AVG","Duration of tail immersion, Animal Mark 1","Duration of tail immersion, Animal Mark 2","Duration of tail immersion, Animal Mark 3","Duration of tail immersion, Animal Mark 4","Duration of tail immersion, Animal Mark 5","Duration of tail immersion, Animal Mark 6"
O=c1c(-c2ccc(O)cc2)coc2cc(O)cc(O)c12 [Genistein],37.58%,37.58%,20.00,7.52,7.52 s,7.68 s,7.15 s,7.23 s,7.68 s,7.68 s,7.68 s
O=c1c(-c2ccc(O)cc2)coc2cc(O)ccc12 [Daidzein],41.38%,41.38%,20.00,8.28,8.28 s,8.55 s,8.00 s,8.98 s,7.95 s,8.12 s,8.05 s
"CC(C)C[C@H](CN)CC(=O)O [Pregabalin, reference compound]",96.27%,96.27%,20.00,19.25,19.25 s,17.20 s,20.00 s,20.00 s,19.95 s,18.37 s,20.00 s
"CCCCCCCCCCCCCCCC(=O)NCCO [PEA, Palmitoylethanolamide]",55.73%,55.73%,20.00,11.15,11.15 s,11.32 s,11.55 s,10.85 s,10.97 s,11.44 s,10.75 s
